Experimental data from US8263598B2, “Substituted sulfonamide compounds” (Gruenenthal GmbH, priority 2008, dated 2012).

Tests used:
[1] = target: T1, human B1R receptor (hB1R) (Homo sapiens, UniProt P46663); test: FLIPR Ca2+ assay on human bradykinin 1 receptor (CHO K1 hB1R cells); assay type: cell-based; settings: test substance 10 μM; CHO K1 cells with human B1R gene; agonist Lys-Des-Arg9-bradykinin 0.5 nM; compared to maximum achievable inhibition
T1 construct: host or cells: CHO K1 cells
T1 sequence (P46663 1-353): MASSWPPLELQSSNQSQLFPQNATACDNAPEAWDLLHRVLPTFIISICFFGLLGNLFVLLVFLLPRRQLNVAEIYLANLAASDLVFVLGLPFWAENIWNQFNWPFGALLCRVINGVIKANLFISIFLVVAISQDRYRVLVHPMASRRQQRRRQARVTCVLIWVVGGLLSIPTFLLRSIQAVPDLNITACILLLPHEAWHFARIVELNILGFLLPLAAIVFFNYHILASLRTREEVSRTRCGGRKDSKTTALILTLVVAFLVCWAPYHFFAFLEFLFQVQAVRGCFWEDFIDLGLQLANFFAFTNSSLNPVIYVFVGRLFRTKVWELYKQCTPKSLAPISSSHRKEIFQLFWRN
In short: (§1)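 Values are percent inhibition of agonist-evoked Ca²⁺ influx, measured by Fluo-4 fluorescence peak in FLIPR relative to maximum achievable inhibition. Compound at 10 μM was preincubated 10 min on B1R-transfected CHO K1 cells before challenge with 0.5 nM Lys-Des-Arg9-bradykinin (human) or 100 nM Des-Arg9-bradykinin (rat).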

[2] = target: T2, B1R receptor of rats (rB1R) (Rattus norvegicus, UniProt P97583); test: FLIPR Ca2+ assay on rat bradykinin 1 receptor (CHO K1 rB1R cells); assay type: cell-based; settings: test substance 10 μM; CHO K1 cells with B1R gene of rats; agonist Des-Arg9-bradykinin 100 nM; compared to maximum achievable inhibition
T2 construct: host or cells: CHO K1 cells
T2 sequence (P97583 1-337): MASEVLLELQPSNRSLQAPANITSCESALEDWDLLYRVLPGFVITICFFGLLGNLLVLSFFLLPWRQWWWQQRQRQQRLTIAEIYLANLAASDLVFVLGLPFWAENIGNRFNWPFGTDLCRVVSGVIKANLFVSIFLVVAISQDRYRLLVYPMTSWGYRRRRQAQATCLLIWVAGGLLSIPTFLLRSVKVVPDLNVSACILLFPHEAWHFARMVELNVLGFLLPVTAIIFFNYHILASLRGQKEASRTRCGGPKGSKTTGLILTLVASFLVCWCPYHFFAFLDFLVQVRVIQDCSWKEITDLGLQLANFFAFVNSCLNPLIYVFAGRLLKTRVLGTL
In short: as §1

| Compound | inhibition at 10 µM [1] | inhibition at 10 µM [2] |
| --- | --- | --- |
| COc1ccc(C2c3cccn3CCN2C(=O)COCCN(Cc2ccccc2)S(=O)(=O)c2c(C)cc(OC)cc2C)cc1 (centres unmarked) [Example 47, N-benzyl-4-methoxy-N-(2-(2-(1-(4-methoxyphenyl)-3,4-dihydropyrrolo[1,2-a]pyrazin-2(1H)-yl)-2-oxoethoxy)ethyl)-2,6-dimethylbenzenesulfonamide] | 42% | 100% |
| COc1cc(C)c(S(=O)(=O)N(CCOCC(=O)N2CCn3cccc3C2c2ccccc2)Cc2ccccc2)c(C)c1 (centres unmarked) [Example 48, N-benzyl-4-methoxy-2,6-dimethyl-N-(2-(2-oxo-2-(1-phenyl-3,4-dihydropyrrolo[1,2-a]pyrazin-2(1H)-yl)ethoxy)ethyl)benzenesulfonamide] | 54% | 98% |
| COc1cc(C)c(S(=O)(=O)N(CCOCC(=O)N2CCn3cccc3C2c2ccc(C)c(C)c2)Cc2ccccc2)c(C)c1 (centres unmarked) [Example 49, N-benzyl-N-(2-(2-(1-(3,4-dimethylphenyl)-3,4-dihydropyrrolo[1,2-a]pyrazin-2(1H)-yl)-2-oxoethoxy)ethyl)-4-methoxy-2,6-dimethylbenzenesulfonamide] | 39% | 69% |
| COc1cc(C)c(S(=O)(=O)N(CCOCC(=O)N2CCn3cccc3C2c2cccs2)Cc2ccccc2)c(C)c1 (centres unmarked) [Example 50, N-benzyl-4-methoxy-2,6-dimethyl-N-(2-(2-oxo-2-(1-(thiophen-2-yl)-3,4-dihydropyrrolo[1,2-a]pyrazin-2(1H)-yl)ethoxy)ethyl)benzenesulfonamide] | 48% | 100% |
| COc1cc(C)c(S(=O)(=O)N(CCOCC(=O)N2CCn3cccc3C2c2ccc(C(C)(C)C)cc2)Cc2ccccc2)c(C)c1 (centres unmarked) [Example 51, N-benzyl-N-(2-(2-(1-(4-tert-butylphenyl)-3,4-dihydropyrrolo[1,2-a]pyrazin-2(1H)-yl)-2-oxoethoxy)ethyl)-4-methoxy-2,6-dimethylbenzenesulfonamide] | 58% | 85% |
| COc1cc(C)c(S(=O)(=O)N(C)CCOCC(=O)N2CCn3cccc3C2C(C)(C)C)c(C)c1 (centres unmarked) [Example 52, N-(2-(2-(1-tert-butyl-3,4-dihydropyrrolo[1,2-a]pyrazin-2(1H)-yl)-2-oxoethoxy)ethyl)-4-methoxy-N,2,6-trimethylbenzenesulfonamide] | 100% | 98% |
| COc1cc(C)c(S(=O)(=O)N(C)CCOCC(=O)N2CCn3cccc3C2C)c(C)c1 (centres unmarked) [Example 53, 4-methoxy-N,2,6-trimethyl-N-(2-(2-(1-methyl-3,4-dihydropyrrolo[1,2-a]pyrazin-2(1H)-yl)-2-oxoethoxy)ethyl)benzenesulfonamide] | 101% | 99% |
| COc1cc(C)c(S(=O)(=O)N(C)CCOCC(=O)N2CCn3cccc3C2c2cccnc2)c(C)c1 (centres unmarked) [Example 54, 4-methoxy-N,2,6-trimethyl-N-(2-(2-oxo-2-(1-(pyridin-3-yl)-3,4-dihydropyrrolo[1,2-a]pyrazin-2(1H)-yl)ethoxy)ethyl)benzenesulfonamide] | 98% | 93% |
| COc1cc(C)c(S(=O)(=O)N(C)CCOCC(=O)N2CCn3cccc3C2c2ccc(Cl)nc2)c(C)c1 (centres unmarked) [Example 55, N-(2-(2-(1-(6-chloropyridin-3-yl)-3,4-dihydropyrrolo-[1,2-a]pyrazin-2(1H)-yl)-2-oxoethoxy)ethyl)-4-methoxy-N,2,6-trimethylbenzenesulfonamide] | 100% | 99% |
| COc1cc(C)c(S(=O)(=O)N(C)CCOCC(=O)N2CCn3ccnc3C2)c(C)c1 [Example 56, N-(2-(2-(5,6-dihydroimidazo[1,2-a]pyrazin-7(8H)-yl)-2-oxoethoxy)ethyl)-4-methoxy-N,2,6-trimethylbenzenesulfonamide] | 85% | 97% |
